For 31 compounds, melting point results are on record in patent publication US6627651B1, “Cyclic compounds and uses thereof” (Takeda Chemical Industries, Ltd., priority 1999, dated 2003).

With `Cc1ccc(-c2ccc3c(c2)C=C(C(=O)N[C@H]2CC[C@H](CN(C)C4CCOCC4)CC2)CO3)cc1` [Compound 67, trans-6-(4-methylphenyl)-N-[4-[N-methyl-N-(tetrahydropyran-4-yl)aminomethyl]cyclohexyl]-2H-1-benzopyran-3-carboxamide], the melting point (commonly the temperature of the solid-liquid transition) is 141 to 143 °C.

As for `Cc1ccc(-c2ccc3c(c2)C=C(C(=O)NC2CCNCC2)CCO3)cc1` [Compound 54, N-(4-piperidinyl)-7-(4-methylphenyl)-2,3-dihydro-1-benzooxepine-4-carboxamide], the melting point lay in the range of 183 to 185 °C.

Compound `C[N+]1(Cc2ccc(NC(=O)c3cccc(OCc4cccc5ccccc45)c3)cc2)CCCCC1.[I-]` [Compound 89, 1-methyl-1-[4-[3-(1-naphthylmethoxy)benzoylamino]benzyl]piperidinium iodide] came in with a melting point of 211 to 213 °C.

Compound `CCOc1cccc(COc2ccc3c(c2)C=C(C(=O)Nc2ccc(CN(C)C4CCOCC4)cc2)CCS3(=O)=O)c1` [Compound 118, 7-(3-ethoxybenzyloxy)-N-[4-[[N-methyl-N-(tetrahydropyran-4-yl)amino]methyl]phenyl]-1,1-dioxo-2,3-dihydro-1-benzothiepine-4-carboxamide] showed a melting point of 189 to 192 °C.

As to `Cc1ccc(-c2ccc3c(c2)C=C(C(=O)N2CCC(N)CC2)CCO3)cc1` [Compound 76, 4-amino-1-(7-(4-methylphenyl)-2,3-dihydro-1-benzooxepine-4-carbonyl)piperidine], the melting point was in the range of 123 to 127 °C.

As for `CCOCCOc1ccccc1COc1ccc2c(c1)C=C(C(=O)Nc1ccc(CN(C)C3CCOCC3)cc1)CCS2(=O)=O` [Compound 104, 7-[[2-(2-ethoxyethoxy)benzyl]oxy]-N-[4-[[N-methyl-N-(tetrahydropyran-4-yl)amino]methyl]phenyl]-1,1-dioxo-2,3-dihydro-1-benzothiepine-4-carboxamide], the melting point lay in the range of 132 to 136 °C.

In turn, `Cc1ccc(-c2ccc3c(c2)C=C(C(=O)NC2CCN(CC4=CCCCCCC4)CC2)CCO3)cc1` [Compound 57, N-(1-(cycloocten-1-yl)methylpiperidin-4-yl)-7-(4-methylphenyl)-2,3-dihydro-1-benzooxepine-4-carboxamide] yielded a melting point of 148 to 151 °C.

As to `COc1ccccc1COc1ccc2c(c1)C=C(C(=O)Nc1ccc(CN(C)C3CCOCC3)cc1)CCS2(=O)=O` [Compound 102, 7-[(2-methoxybenzyl)oxy]-N-[4-[[N-methyl-N-(tetrahydropyran-4-yl)amino]methyl]phenyl]-1,1-dioxo-2,3-dihydro-1-benzothiepine-4-carboxamide], the melting point lay in the range of 223 to 225 °C.

In turn, `Cc1ccc(-c2ccc3c(c2)C=C(C(=O)NC2CCN(CC4CCCCC4)CC2)CCO3)cc1` [Compound 55, N-(1-cyclohexylmethylpiperidin-4-yl)-7-(4-methylphenyl)-2,3-dihydro-1-benzooxepine-4-carboxamide] showed a melting point of 180 to 181 °C.

`Cc1ccc(-c2ccc3c(c2)C=C(C(=O)NC2CCN(CC4=CCCCCCCC4)CC2)CCO3)cc1` [Compound 59, N-(1-(cyclononen-1-yl)methylpiperidin-4-yl)-7-(4-methylphenyl)-2,3-dihydro-1-benzooxepine-4-carboxamide] yielded a melting point of 128 to 130 °C.

The compound `CCOc1ccc(COc2ccc3c(c2)C=C(C(=O)Nc2ccc(CN(C)C4CCOCC4)cc2)CCS3(=O)=O)cc1OCC` [Compound 122, N-[4-[[N-methyl-N-(tetrahydropyran-4-yl)amino]methyl]phenyl]-7-(3,4-diethoxybenzyloxy)-1,1-dioxo-2,3-dihydro-1-benzothiepine-4-carboxamide] showed a melting point of 186 to 188 °C.

Compound `CCCOc1ccccc1CCCOc1ccc2c(c1)C=C(C(=O)Nc1ccc(CN(C)C3CCOCC3)cc1)CCS2(=O)=O` [Compound 119, N-[4-[[N-methyl-N-(tetrahydropyran-4-yl)amino]methyl]phenyl]-7-[3-(2-propoxyphenyl)propoxy]-1,1-dioxo-2,3-dihydro-1-benzothiepine-4-carboxamide] gave a melting point of 184 to 186 °C.

Regarding `CCCOCCOc1ccc(Oc2ccc3c(c2)C=C(C(=O)Nc2ccc(CN(C)C4CCOCC4)cc2)CCS3(=O)=O)cc1OCC` [Compound 114, 7-[3-ethoxy-4-(2-propoxyethoxy)phenoxy]-N-[4-[[N-methyl-N-(tetrahydropyran-4-yl)amino]methyl]phenyl]-1,1-dioxo-2,3-dihydro-1-benzothiepine-4-carboxamide], the melting point was 159 to 160 °C.

`Cc1ccc(COc2cccc(/C=C/c3ccc(C[N+]4(C)CCCCC4)cc3)c2)cc1.[I-]` [Compound 98, (E)-1-methyl-1-[4-[3-(4-methylbenzyloxy)styryl]benzyl]piperidinium iodide] had a melting point of 189 to 192 °C.

With `CCCOc1ccc(Oc2ccc3c(c2)C=C(C(=O)Nc2ccc(CN(C)C4CCOCC4)cc2)CCS3(=O)=O)cc1` [Compound 111, N-[4-[[N-methyl-N-(tetrahydropyran-4-yl)amino]methyl]phenyl]-7-(4-propoxyphenoxy)-1,1-dioxo-2,3-dihydro-1-benzothiepine-4-carboxamide], the melting point lay in the range of 139 to 141 °C.

In turn, `Cc1ccc(-c2cncc(/C=C/C(=O)N[C@H]3CC[C@H](CN(C)C4CCOCC4)CC3)c2)cc1` [Compound 73, (trans, E)-3-[5-(4-methylphenyl)pyridin-3-yl]-N-[4-[N-methyl-N-(tetrahydropyran-4-yl)aminomethyl]cyclohexyl]acrylamide] had a melting point of 233 to 236 °C.

Compound `Cc1ccc(-c2ccc3nc(C)c(C(=O)N[C@H]4CC[C@H](CN(C)C5CCOCC5)CC4)cc3c2)cc1` [Compound 70, trans-2-methyl-6-(4-methylphenyl)-N-[4-[N-methyl-N-(tetrahydropyran-4-yl)aminomethyl]cyclohexyl]quinoline-3-carboxamide] had a melting point of 163 to 165 °C.

Consider `CN(Cc1ccc(NC(=O)C2=Cc3cc(OCc4cccnc4)ccc3S(=O)(=O)CC2)cc1)C1CCOCC1` [Compound 4, N-[4-[N-methyl-N-(tetrahydropyran-4-yl)aminomethyl]phenyl]-7-(3-pyridylmethoxy)-1,1-dioxo-2,3-dihydro-1-benzothiepine-4-carboxamide], for which the melting point lay within 225 to 229 °C.

`O=C(Nc1ccc(CN2CCCCC2)cc1)c1cccc(OCc2cccc3ccccc23)c1` [Compound 86, 3-(1-naphthylmethoxy)-4′-(piperidinomethyl)benzanilide] yielded a melting point of 171 to 173 °C.

The compound `Cc1ccc(-c2ccc3c(c2)C=C(C(=O)N[C@H]2CC[C@H](CN(C)C4CCOCC4)CC2)CCO3)cc1` [Compound 63, trans-7-(4-methylphenyl)-N-[4-[N-methyl-N-(tetrahydropyran-4-yl)aminomethyl]cyclohexyl]-2,3-dihydro-1-benzooxepine-4-carboxamide] showed a melting point of 144 to 146 °C.

In the case of `Cc1ccc(-c2ccc3cc(C(=O)Nc4ccc(CN(C)C5CCOCC5)cc4)n(C)c3c2)cc1` [Compound 24, 1-methyl-6-(4-methylphenyl)-N-[4-[N-methyl-N-(tetrahydropyran-4-yl)aminomethyl]phenyl]-1H-indole-2-carboxamide], the melting point is 225 to 226 °C.

With `C[N+]1(Cc2ccc(NC(=O)c3cccc(OCc4ccccc4)c3)cc2)CCCCC1.[I-]` [Compound 87, 1-[4-(3-benzyloxybenzoylamino)benzyl]-1-methylpiperidinium iodide], the melting point lay within 192 to 194 °C.

Regarding `Cc1ccc(-c2ccc3c(c2)CN(C(=O)Nc2ccc(C[N+]4(C)CCCCC4)cc2)CC3)cc1.[Cl-]`, the melting point is 179 to 180 °C (dec.).

Regarding `Cc1ccc(-c2coc(/C=C/C(=O)N[C@H]3CC[C@H](CN(C)C4CCOCC4)CC3)c2)cc1` [Compound 74, (trans, E)-3-[4-(4-methylphenyl)furan-2-yl]-N-[4-[N-methyl-N-(tetrahydropyran-4-yl)aminomethyl]cyclohexyl]acrylamide], the melting point is 165 to 167 °C.

Take `C[N+]1(Cc2ccc(NC(=O)C3CCc4ccc(-c5ccccc5)cc4C3)cc2)CCCCC1.[I-]` (stereo not shown) [Compound 83, 1-[4-(7-phenyl-1,2,3,4-tetrahydronaphthalene-2-carboxamido)benzyl]-1-methylpiperidinium iodide]: the melting point was 205 to 208 °C.

As for `CCNC(=N)c1ccc(NC(=O)C2=Cc3cc(-c4ccc(C)cc4)ccc3OCC2)cc1.Cl`, the melting point is greater than 300 °C.

The compound `O=C(Nc1ccc(CN2CCCCC2)cc1)C1CCc2ccc(-c3ccccc3)cc2C1` (stereo not shown) [Compound 82, N-[4-(piperidinomethyl)phenyl]-7-phenyl-1,2,3,4-tetrahydronaphthalene-2-carboxamide] displayed a melting point of 185 to 187 °C.

`CCCOc1ccccc1CCOc1ccc2c(c1)C=C(C(=O)Nc1ccc(CN(C)C3CCOCC3)cc1)CCS2(=O)=O` [Compound 106, N-[4-[[N-methyl-N-(tetrahydropyran-4-yl)amino]methyl]phenyl]-7-[(2-propoxyphenethyl)oxy]-1,1-dioxo-2,3-dihydro-1-benzothiepine-4-carboxamide] yielded a melting point of 161 to 162 °C.

Compound `COC(=O)N1CCN=C1Cc1ccc(NC(=O)C2=Cc3cc(-c4ccc(C)cc4)ccc3OCC2)cc1` [Compound 96, N-[4-[(1-methoxycarbonyl-2-imidazolin-2-yl)methyl]phenyl]-7-(4-methylphenyl)-2,3-dihydro-1-benzooxepine-4-carboxamide] came in with a melting point of 170 to 171 °C.

Compound `Cc1ccc(-c2ccc3c(c2)C=C(C(=O)N[C@H]2CC[C@H](CN(C)C4CCN(C(=O)OC(C)(C)C)CC4)CC2)CCO3)cc1` [Compound 65, trans-N-[4-[N-(1-tert-butoxycarbonylpiperidin-4-yl)-N-methylaminomethyl]cyclohexyl]-7-(4-methylphenyl)-2,3-dihydro-1-benzooxepine-4-carboxamide] showed a melting point of 146 to 150 °C.

The compound `Cc1ccc(COc2cccc(C(=O)Nc3ccc(C[N+]4(C)CCCCC4)cc3)c2)cc1.[I-]` [Compound 88, 1-methyl-1-[4-[3-(4-methylbenzyloxy)benzoylamino]benzyl]piperidinium iodide] came in with a melting point of 210 to 212 °C.
